Each block holds one compound with its values, some of them ahead of it.
Experiments:
LRRK2^KW [1] = target: T1, LRRK2^KW (Homo sapiens, UniProt Q5S007); set-up: Differential scanning fluorometry, thermal stabilization of LRRK2 KW by compound; settings: binder
T1 construct: Kinase and WD40 domain construct (KW)
Excerpt: Next, we evaluated the potency and selectivity of these new compounds. We performed on-target screening by measuring the thermostability increase of LRRK2^KW in the presence of the new compounds using DSF (Supporting Information Table S2). We also determined the in vitro IC50 (median inhibitory concentration) values for each of the new compounds by purifying LRRK2^RCKW and measuring its kinase activity in the presence of our new inhibitors using the PhosphoSense® activity assay from AssayQuant (Supporting Information Table S2). Finally, we estimated the kinome selectivity of each compound by measuring the thermostability increase of approximately 100 representative kinases in the presence of the compounds via DSF (Supporting Information Table S2). […] Additionally, we screened a library of published type-II inhibitors to identify those that bind to LRRK2^KW (a Kinase and WD40 domain construct of LRRK2) with high affinity.

[2] = target: T2, leucine-rich repeat kinase 2 (LRRK2) (Homo sapiens, UniProt Q5S007); assay: biochemical; set-up: PhosphoSense (AssayQuant) kinase activity assay with purified LRRK2 RCKW
T2 construct: LRRK2^RCKW (ROC, COR, Kinase, WD40)
T2 sequence (Q5S007 1327-2527 limits assumed): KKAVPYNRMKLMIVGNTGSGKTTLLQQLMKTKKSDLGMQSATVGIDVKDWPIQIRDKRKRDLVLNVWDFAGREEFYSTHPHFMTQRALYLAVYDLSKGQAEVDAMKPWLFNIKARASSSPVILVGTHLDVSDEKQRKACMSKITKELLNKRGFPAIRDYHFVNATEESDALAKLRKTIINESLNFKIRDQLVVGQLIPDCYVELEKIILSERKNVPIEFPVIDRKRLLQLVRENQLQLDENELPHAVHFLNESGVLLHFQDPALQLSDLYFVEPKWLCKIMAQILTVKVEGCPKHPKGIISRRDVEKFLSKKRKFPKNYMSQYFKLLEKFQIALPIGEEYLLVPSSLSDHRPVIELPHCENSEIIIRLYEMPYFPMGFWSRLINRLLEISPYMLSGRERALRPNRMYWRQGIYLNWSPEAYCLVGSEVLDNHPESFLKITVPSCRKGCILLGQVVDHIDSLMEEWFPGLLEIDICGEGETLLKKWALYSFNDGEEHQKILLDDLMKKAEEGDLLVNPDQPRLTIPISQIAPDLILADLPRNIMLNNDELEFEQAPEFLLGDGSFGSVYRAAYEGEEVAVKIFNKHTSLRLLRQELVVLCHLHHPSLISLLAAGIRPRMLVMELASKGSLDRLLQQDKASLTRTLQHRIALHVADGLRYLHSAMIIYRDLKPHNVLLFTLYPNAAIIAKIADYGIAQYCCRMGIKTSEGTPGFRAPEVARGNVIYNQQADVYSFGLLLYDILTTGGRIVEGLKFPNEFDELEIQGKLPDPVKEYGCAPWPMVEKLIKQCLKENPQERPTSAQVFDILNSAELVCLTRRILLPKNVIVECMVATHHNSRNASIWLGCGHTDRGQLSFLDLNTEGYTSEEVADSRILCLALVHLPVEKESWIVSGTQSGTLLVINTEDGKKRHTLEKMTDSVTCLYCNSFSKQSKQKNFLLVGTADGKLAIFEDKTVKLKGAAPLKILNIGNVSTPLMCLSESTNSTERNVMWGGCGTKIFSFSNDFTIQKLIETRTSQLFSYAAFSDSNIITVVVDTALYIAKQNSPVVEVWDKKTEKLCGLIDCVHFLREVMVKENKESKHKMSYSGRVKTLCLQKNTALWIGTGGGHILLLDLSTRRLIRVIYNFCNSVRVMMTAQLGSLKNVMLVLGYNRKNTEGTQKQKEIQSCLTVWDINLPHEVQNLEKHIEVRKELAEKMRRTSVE
Excerpt: (§1) Next, we evaluated the potency and selectivity of these new compounds. We performed on-target screening by measuring the thermostability increase of LRRK2^KW in the presence of the new compounds using DSF (Supporting Information Table S2). We also determined the in vitro IC50 (median inhibitory concentration) values for each of the new compounds by purifying LRRK2^RCKW and measuring its kinase activity in the presence of our new inhibitors using the PhosphoSense® activity assay from AssayQuant (Supporting Information Table S2). Finally, we estimated the kinome selectivity of each compound by measuring the thermostability increase of approximately 100 representative kinases in the presence of the compounds via DSF (Supporting Information Table S2).

LRRK2^KW [3] = target: T1, LRRK2^KW; set-up: DSF thermal shift of purified LRRK2 KW construct with compound; settings: binder
Excerpt: Additionally, we screened a library of published type-II inhibitors to identify those that bind to LRRK2^KW (a Kinase and WD40 domain construct of LRRK2) with high affinity. […] Next, we evaluated the potency and selectivity of these new compounds. We performed on-target screening by measuring the thermostability increase of LRRK2^KW in the presence of the new compounds using DSF (Supporting Information Table S2). We also determined the in vitro IC50 (median inhibitory concentration) values for each of the new compounds by purifying LRRK2^RCKW and measuring its kinase activity in the presence of our new inhibitors using the PhosphoSense® activity assay from AssayQuant (Supporting Information Table S2). Finally, we estimated the kinome selectivity of each compound by measuring the thermostability increase of approximately 100 representative kinases in the presence of the compounds via DSF (Supporting Information Table S2).

[4] = target: T2, leucine-rich repeat kinase 2 (LRRK2); assay: biochemical; set-up: PhosphoSense kinase activity assay, purified LRRK2 RCKW
Excerpt: as §1

[5] = target: T2, leucine-rich repeat kinase 2 (LRRK2); assay: PhosphoSense kinase activity assay; DSF ΔTm […] K on LRRK2^KW; type: biochemical
[6] = target: T2, leucine-rich repeat kinase 2 (LRRK2); assay: as above; type: biochemical; remark: listed apart in the source

T1 sequence (Q5S007 whole entry, the tested form may be a part): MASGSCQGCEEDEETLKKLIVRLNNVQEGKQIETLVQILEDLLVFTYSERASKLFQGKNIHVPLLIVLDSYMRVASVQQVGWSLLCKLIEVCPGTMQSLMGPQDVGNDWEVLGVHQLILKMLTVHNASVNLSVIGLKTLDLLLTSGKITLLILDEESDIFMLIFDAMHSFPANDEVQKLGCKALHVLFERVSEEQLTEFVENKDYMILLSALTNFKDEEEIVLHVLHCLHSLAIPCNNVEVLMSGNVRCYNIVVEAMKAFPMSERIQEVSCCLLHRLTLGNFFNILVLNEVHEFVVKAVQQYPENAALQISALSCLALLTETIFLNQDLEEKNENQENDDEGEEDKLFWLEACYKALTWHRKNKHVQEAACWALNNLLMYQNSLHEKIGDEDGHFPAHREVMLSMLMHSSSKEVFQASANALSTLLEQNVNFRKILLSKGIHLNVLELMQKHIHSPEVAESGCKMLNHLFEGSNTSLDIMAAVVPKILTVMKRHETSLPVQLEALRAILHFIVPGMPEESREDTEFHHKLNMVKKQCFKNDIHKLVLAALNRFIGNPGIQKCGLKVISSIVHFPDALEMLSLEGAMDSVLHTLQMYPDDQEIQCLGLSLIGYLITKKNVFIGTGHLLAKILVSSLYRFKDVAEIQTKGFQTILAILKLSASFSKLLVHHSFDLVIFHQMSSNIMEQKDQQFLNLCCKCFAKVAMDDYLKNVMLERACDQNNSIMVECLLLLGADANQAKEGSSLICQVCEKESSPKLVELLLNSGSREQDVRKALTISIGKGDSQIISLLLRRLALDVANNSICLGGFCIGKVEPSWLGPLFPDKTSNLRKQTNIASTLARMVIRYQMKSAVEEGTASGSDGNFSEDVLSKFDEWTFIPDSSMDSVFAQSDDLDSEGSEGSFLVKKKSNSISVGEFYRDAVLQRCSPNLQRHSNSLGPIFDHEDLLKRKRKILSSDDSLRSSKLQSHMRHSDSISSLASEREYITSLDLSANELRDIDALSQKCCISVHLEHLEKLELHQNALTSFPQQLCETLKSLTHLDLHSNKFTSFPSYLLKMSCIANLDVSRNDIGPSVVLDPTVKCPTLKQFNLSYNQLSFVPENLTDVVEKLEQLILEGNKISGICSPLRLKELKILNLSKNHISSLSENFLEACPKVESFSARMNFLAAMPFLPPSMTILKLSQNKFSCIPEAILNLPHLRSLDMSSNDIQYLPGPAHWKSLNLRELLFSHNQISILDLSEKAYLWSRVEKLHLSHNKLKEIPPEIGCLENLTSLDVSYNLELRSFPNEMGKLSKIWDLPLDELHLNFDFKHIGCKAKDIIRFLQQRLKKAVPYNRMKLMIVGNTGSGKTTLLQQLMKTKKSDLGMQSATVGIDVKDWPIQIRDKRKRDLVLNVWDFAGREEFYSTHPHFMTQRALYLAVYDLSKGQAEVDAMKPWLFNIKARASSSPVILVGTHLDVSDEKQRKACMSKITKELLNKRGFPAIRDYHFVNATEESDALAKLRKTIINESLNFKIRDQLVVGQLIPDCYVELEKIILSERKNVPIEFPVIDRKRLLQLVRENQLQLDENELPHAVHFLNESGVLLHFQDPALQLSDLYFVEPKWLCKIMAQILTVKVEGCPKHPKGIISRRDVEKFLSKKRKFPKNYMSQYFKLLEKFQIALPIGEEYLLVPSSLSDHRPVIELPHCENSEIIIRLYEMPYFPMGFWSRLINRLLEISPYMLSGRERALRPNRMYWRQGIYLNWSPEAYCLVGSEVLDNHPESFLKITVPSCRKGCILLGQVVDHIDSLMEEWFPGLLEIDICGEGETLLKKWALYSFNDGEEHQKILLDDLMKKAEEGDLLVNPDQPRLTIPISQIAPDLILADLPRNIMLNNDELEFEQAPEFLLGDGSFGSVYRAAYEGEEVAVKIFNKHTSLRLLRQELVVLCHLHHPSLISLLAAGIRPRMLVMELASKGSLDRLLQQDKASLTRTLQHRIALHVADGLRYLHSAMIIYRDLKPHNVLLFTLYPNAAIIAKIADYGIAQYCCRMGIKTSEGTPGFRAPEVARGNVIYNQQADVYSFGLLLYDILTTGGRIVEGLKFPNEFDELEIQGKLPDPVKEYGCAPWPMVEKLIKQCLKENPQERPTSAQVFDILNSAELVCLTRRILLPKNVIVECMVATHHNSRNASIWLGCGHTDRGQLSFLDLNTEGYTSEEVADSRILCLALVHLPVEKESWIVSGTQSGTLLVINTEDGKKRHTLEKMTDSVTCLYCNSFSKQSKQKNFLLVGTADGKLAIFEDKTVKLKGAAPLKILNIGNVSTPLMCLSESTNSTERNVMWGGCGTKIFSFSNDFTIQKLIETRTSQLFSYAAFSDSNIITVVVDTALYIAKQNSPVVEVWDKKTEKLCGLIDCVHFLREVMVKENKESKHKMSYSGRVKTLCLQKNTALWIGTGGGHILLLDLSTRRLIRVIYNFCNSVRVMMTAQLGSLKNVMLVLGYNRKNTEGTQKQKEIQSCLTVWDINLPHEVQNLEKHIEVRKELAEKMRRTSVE

- ΔTm [K] (LRRK2^KW [1]): 4.3 K
- IC50 [2]: 3180 ± 134 nM
SMILES: CN1CCc2cc(N(C(=O)C3(C(N)=O)CC3)c3cccc(-c4c[nH]c5ncnc(N6CCOCC6)c45)c3)ccc2C1 [compound 10, N-(2-methyl-1,2,3,4-tetrahydroisoquinolin-6-yl)-N-(3-(4-morpholino-7H-pyrrolo[2,3-d]pyrimidin-5-yl)phenyl)cyclopropane-1,1-dicarboxamide]

- ∆Tm [K] (LRRK2^KW [3]): 10.0 K
- IC50 ([4]; read-out: IC50): 897 ± 120 nM
SMILES: Cc1ccc(C(=O)Nc2ccc(CN3CCN(C)CC3)c(C(F)(F)F)c2)cc1C#Cc1ccc2cn[nH]c2c1 [compound 52, 3-((1H-indazol-6-yl)ethynyl)-4-methyl-N-(4-((4-methylpiperazin-1-yl)methyl)-3-(trifluoromethyl)phenyl)benzamide]

- ∆Tm [K] (LRRK2^KW [3]): 2.0 K
- IC50 ([4]; read-out: IC50 [nM]): > 15000 nM
SMILES: Cc1ccc(-n2nc(C(C)(C)C)cc2NC(=O)Nc2ccc3cn[nH]c3c2)cc1 [compound 54, 1-(3-(tert-butyl)-1-(p-tolyl)-1H-pyrazol-5-yl)-3-(1H-indazol-6-yl)urea]

- IC50 [5]: 110 ± 11 nM
SMILES: Cc1cc(N(C(=O)C2(C(N)=O)CC2)c2cccc(-c3c[nH]c4ncnc(N5CCOCC5)c34)c2)ccc1F [compound 20, 20]

- ∆Tm [K] (LRRK2^KW [3]): 2.0 K
- IC50 ([4]; read-out: IC50 [nM]): > 15000 nM
SMILES: CC(C)(C)c1cc(NC(=O)Nc2ccc3cn[nH]c3c2)n(-c2ccc3ncccc3c2)n1 [compound 53, 1-(3-(tert-butyl)-1-(quinolin-6-yl)-1H-pyrazol-5-yl)-3-(1H-indazol-6-yl)urea]

- IC50 [6]: 134 ± 5 nM
SMILES: NC(=O)C1(C(=O)N(c2cccc(-c3c[nH]c4ncnc(N5CCOCC5)c34)c2)c2ccc(F)c(Br)c2F)CC1 [compound 26, RN222]

- ΔTm [K] (LRRK2^KW [1]): 9.2 K
- IC50 [2]: 989 ± 32 nM
SMILES: NC(=O)C1(C(=O)N(c2cccc(-c3c[nH]c4ncnc(N5CCOCC5)c34)c2)c2cccc3c2CCC3)CC1 [compound 11, N-(2,3-dihydro-1H-inden-4-yl)-N-(3-(4-morpholino-7H-pyrrolo[2,3-d]pyrimidin-5-yl)phenyl)cyclopropane-1,1-dicarboxamide]

Reference: paper doi:10.1101/2024.09.17.613365, “Type-II kinase inhibitors that target Parkinson’s Disease-associated LRRK2” (bioRxiv, 2025)
